Species on record: Rattus norvegicus
Experiment: DrugMatrix - Regimen: Daily Repeat
Type: toxicity, organism-based, Sprague-Dawley
Parameters: regimen Daily Repeat, gender Male, age 6-8 weeks
Conditions: in vivo, iv, 55 mg/kg, dose level Low, vehicle 100 % SALINE
[1] = 72 h, tissue Plasma, time 3 day
[2] = 120 h, tissue Blood, time 5 day
[3] = 120 h, tissue Plasma, time 5 day

GADOPENTETATE DIMEGLUMINE
ABSOLUTE BASOPHIL (72 h, tissue Blood, time 3 day): 0 CELLS/uL | ABSOLUTE EOSINOPHIL (72 h, tissue Blood, time 3 day): 43.67 CELLS/uL | ABSOLUTE LYMPHOCYTE (72 h, tissue Blood, time 3 day): 9839.33 CELLS/uL | ABSOLUTE MONOCYTE (72 h, tissue Blood, time 3 day): 219.67 CELLS/uL | ABSOLUTE SEGMENTED NEUTROPHIL (72 h, tissue Blood, time 3 day): 564 CELLS/uL | BASOPHIL (72 h, tissue Blood, time 3 day): 0% | EOSINOPHIL (72 h, tissue Blood, time 3 day): 0.33% | ERYTHROCYTE COUNT (72 h, tissue Blood, time 3 day): 5.53 x10E6/uL | HEMOGLOBIN (72 h, tissue Blood, time 3 day): 13.6 G/DL | LEUKOCYTE COUNT (72 h, tissue Blood, time 3 day): 10.67 x10E3/uL | LYMPHOCYTE (72 h, tissue Blood, time 3 day): 92.67% | MEAN CORPUSCULAR HEMOGLOBIN (72 h, tissue Blood, time 3 day): 24.63 pg | MEAN CORPUSCULAR HEMOGLOBIN CONCENTRATION (72 h, tissue Blood, time 3 day): 37.3 G/DL | MEAN CORPUSCULAR VOLUME (72 h, tissue Blood, time 3 day): 66.07 fL | MONOCYTE (72 h, tissue Blood, time 3 day): 2% | NEUTROPHIL (72 h, tissue Blood, time 3 day): 5% | NUCLEATED RED BLOOD CELLS (72 h, tissue Blood, time 3 day): 0 /100WBC | PLATELET COUNT (72 h, tissue Blood, time 3 day): 1301 x10E3/uL | ALANINE AMINOTRANSFERASE [1]: 40 u/L | ALKALINE PHOSPHATASE [1]: 398.33 u/L | ASPARTATE AMINOTRANSFERASE [1]: 87.67 u/L | CARBON DIOXIDE [1]: 23.33 mmol/L | CHOLESTEROL [1]: 81.33 mg/dL | CREATINE PHOSPHOKINASE [1]: 415.67 u/L | CREATININE [1]: 0.21 mg/dL | LACTATE DEHYDROGENASE [1]: 589.67 u/L | POTASSIUM [1]: 6.91 MEQ/L | SODIUM [1]: 145.83 MEQ/L | TOTAL BILIRUBIN [1]: 0.2 mg/dL | TOTAL PROTEIN [1]: 6.1 G/DL | ABSOLUTE BASOPHIL [2]: 0 CELLS/uL | ABSOLUTE EOSINOPHIL [2]: 278.33 CELLS/uL | ABSOLUTE LYMPHOCYTE [2]: 15424.33 CELLS/uL | ABSOLUTE MONOCYTE [2]: 421.67 CELLS/uL | ABSOLUTE SEGMENTED NEUTROPHIL [2]: 1375.67 CELLS/uL | BASOPHIL [2]: 0% | ERYTHROCYTE COUNT [2]: 5.85 x10E6/uL | HEMATOCRIT [2]: 36.97% | HEMOGLOBIN [2]: 14.03 G/DL | LEUKOCYTE COUNT [2]: 17.5 x10E3/uL | LYMPHOCYTE [2]: 88% | MEAN CORPUSCULAR HEMOGLOBIN [2]: 24.07 pg | MEAN CORPUSCULAR HEMOGLOBIN CONCENTRATION [2]: 37.97 G/DL | NEUTROPHIL [2]: 8% | NUCLEATED RED BLOOD CELLS [2]: 0 /100WBC | PLATELET COUNT [2]: 1344.67 x10E3/uL | ALANINE AMINOTRANSFERASE [3]: 53.33 u/L | ALBUMIN [3]: 4.2 G/DL | ALKALINE PHOSPHATASE [3]: 358.67 u/L | ASPARTATE AMINOTRANSFERASE [3]: 83 u/L | BLOOD UREA NITROGEN [3]: 16.67 mg/dL | CARBON DIOXIDE [3]: 26.33 mmol/L | CHLORIDE [3]: 106.67 MEQ/L | CHOLESTEROL [3]: 68 mg/dL | CREATINE PHOSPHOKINASE [3]: 219.67 u/L | CREATININE [3]: 0.19 mg/dL | GLUCOSE [3]: 172 mg/dL | LACTATE DEHYDROGENASE [3]: 98 u/L | LIPASE [3]: 10 u/L | PHOSPHORUS [3]: 12.93 mg/dL | POTASSIUM [3]: 6.64 MEQ/L | SODIUM [3]: 146.2 MEQ/L | TOTAL BILIRUBIN [3]: 0.2 mg/dL | TOTAL PROTEIN [3]: 6.13 G/DL | URIC ACID [3]: 2.37 mg/dL

— ChEMBL document CHEMBL3885881, “DrugMatrix”
